Reference: patent US8815857B2 (Boehringer Ingelheim International GmbH, priority 2011, dated 2014)
In brackets after ≈: the same amount, converted by molar mass.

What was measured:
[1] = biological target: T1, Recombinant human soluble guanylate cyclase (sGC), alpha 1 / beta 1 subunits, heme-free (Homo sapiens, UniProt Q02108+Q02153); assay: Molecular assay: cGMP formation by heme-free recombinant sGC (CisBio cGMP detection kit); assay type: biochemical; settings: 300 pM heme-free sGC, 37° C., 60 min, cGMP readout; read-out: EC50 nM, Activity of Compounds in Molecular Assay
T1 construct: histidine tag (C); made in house; host or cells: Sf9 insect cells (baculovirus coinfection)
T1 sequence (Q02108 1-690 partner): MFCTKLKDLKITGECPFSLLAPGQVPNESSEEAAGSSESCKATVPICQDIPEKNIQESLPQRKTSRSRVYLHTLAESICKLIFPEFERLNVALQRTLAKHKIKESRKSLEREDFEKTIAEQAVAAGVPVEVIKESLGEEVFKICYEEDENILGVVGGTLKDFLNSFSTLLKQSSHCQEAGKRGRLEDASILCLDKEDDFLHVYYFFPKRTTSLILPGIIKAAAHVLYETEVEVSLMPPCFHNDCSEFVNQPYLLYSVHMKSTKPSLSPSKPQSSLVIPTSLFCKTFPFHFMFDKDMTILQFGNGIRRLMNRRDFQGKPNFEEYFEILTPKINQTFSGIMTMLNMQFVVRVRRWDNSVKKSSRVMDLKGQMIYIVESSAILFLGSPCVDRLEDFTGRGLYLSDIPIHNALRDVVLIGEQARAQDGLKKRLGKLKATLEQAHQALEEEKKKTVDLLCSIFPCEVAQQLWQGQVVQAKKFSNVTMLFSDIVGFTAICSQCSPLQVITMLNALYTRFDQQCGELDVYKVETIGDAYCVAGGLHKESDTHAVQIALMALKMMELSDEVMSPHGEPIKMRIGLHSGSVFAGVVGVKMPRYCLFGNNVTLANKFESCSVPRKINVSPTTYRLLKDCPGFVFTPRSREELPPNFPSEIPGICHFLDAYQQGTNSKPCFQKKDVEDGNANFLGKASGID
T1 sequence (Q02153 1-619): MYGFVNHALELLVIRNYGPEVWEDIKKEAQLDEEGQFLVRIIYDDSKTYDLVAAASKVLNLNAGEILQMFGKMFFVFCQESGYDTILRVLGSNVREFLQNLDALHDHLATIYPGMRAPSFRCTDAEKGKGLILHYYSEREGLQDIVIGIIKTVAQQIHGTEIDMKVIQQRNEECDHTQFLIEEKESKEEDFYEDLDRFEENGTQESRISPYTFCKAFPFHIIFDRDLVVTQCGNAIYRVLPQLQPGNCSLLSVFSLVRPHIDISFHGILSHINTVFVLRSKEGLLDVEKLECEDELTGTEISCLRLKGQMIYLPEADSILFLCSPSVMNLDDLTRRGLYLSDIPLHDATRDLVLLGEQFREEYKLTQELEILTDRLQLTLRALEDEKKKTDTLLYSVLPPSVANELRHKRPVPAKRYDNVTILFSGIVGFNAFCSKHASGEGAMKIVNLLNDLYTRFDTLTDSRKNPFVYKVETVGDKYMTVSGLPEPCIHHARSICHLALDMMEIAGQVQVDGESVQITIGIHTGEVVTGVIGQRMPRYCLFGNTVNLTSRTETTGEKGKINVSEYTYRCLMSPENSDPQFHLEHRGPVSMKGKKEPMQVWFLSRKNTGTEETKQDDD
Description: Recombinant human soluble guanylate cyclase (sGC) is purified from Sf9 insect cells coinfected with baculoviruses expressing the alpha 1 or beta 1 subunit of sGC, both with a C-terminal histidine tag. Heme-free sGC is prepared by treating cell lysate with a final concentration of 0.5% Tween 20 prior to purification on a nickel affinity column.
sGC catalyzes the conversion of guanosine-5′-triphosphate (GTP) to cyclic guanosine monophosphate (cGMP). The activity of sGC is measured in vitro using the commercially available CisBio cGMP detection kit (catalog # 62GM2PEB) in a 384 well format. In brief, 300 pM heme-free sGC is incubated in reaction buffer (50 mM MOPS pH 6.8, 0.2 N KOH, 50 mM NaCl, 2 mM MgCl2, 0.1% BSA, 1.25 mM IBMX, 0.25 mM TCEP, 50 nM GTP) in the presence or absence of dilutions of test compounds diluted in DMSO (final concentration of 1%) in a volume of 10 microL at 37° C. for 60 min. Undiluted reaction products or an 80-fold dilution of reaction products (10 microL of either) prepared in reaction buffer containing 0.2 mM TCEP and 10 mM EDTA is mixed with 5 microL of d2-cGMP plus 5 microL of Eu^3+ cryptate-labeled anti-cGMP, each diluted in buffer containing 0.1 M KPO4 pH 7.5, 0.4 M KF, 20 mM EDTA, 0.2% BSA. After a one h incubation at room temperature in the dark, the mixtures are quantified on an EnVision plate reader (PerkinElmer) according to manufacturer instructions (laser excitation 337 nm, emission 620 and 665 nm). The ratio at each compound concentration is converted to nM cGMP using the linear portion of a calibration curve. Log compound concentration is plotted against combined undiluted and diluted nM cGMP values to determine the EC50 for each curve.

[2] = Assessment of solubility: HT solubility in pION buffer, UV spectrophotometry; settings: 16-19 h incubation, 1.0% DMSO; for solubility: pION system solution buffer, kinetic from dmso stock
[3] = pH 4.5, pH 4.5, aqueous buffer, Solubility (pH 4.5), pH 4.5 buffer
[4] = pH 7.4, pH 7.4, aqueous buffer, Solubility (pH 7.4), pH 7.4 buffer

EC50 [1] [nM] | solubility [2, 3] [µg/mL] | solubility [2, 4] [µg/mL] | Solubility (pH 4.5) ([2]; pH 4.5 buffer) [μg/mL] | Compound
63 | > 60 | > 60 | – | Cc1cc(CN2CCOCC2)ccc1COc1ccccc1-c1csc(N2CC3CCC(C2)C3C(=O)O)n1 (stereo not drawn) [Compound 43]
730 | > 64 | 35 (≈ 65.6 µM) | – | Cc1ccc(OCc2ccc(CNC3CCCCC3)cc2C)c(-c2csc(N3CCC(C(=O)O)CC3)n2)c1 [Compound 45]
260 | > 64 | > 64 | – | COCCN(C)Cc1ccc(COc2ccc(C)cc2-c2csc(N3CCC(C(=O)O)CC3)n2)c(C#N)c1 [Compound 46]
4000 | > 64 | > 64 | – | Cc1ccc(OCc2ccc(CNC(C)(C)CO)cc2C#N)c(-c2csc(N3CCC(C(=O)O)CC3)n2)c1 [Compound 47]
360 | – | 27 (≈ 50.5 µM) | 0.1 | Cc1cc(C(=O)N2CCCCC2)ccc1COc1ccc(F)cc1-c1csc(C2=CCC(C(=O)O)CC2)n1 (stereo not drawn) [Compound 48]
130 | 13 (≈ 24.3 µM) | > 53 | – | Cc1ccc(OCc2ccc(C(=O)N3CCOCC3)cc2C)c(-c2csc(N3CCC(C(=O)O)CC3)n2)c1 [Compound 49]
1100 | > 58 | 31 (≈ 57.9 µM) | – | Cc1ccc(OCc2ccc(CN3CCOCC3)cc2C)c(-c2csc(N3CCC(C)(C(=O)O)CC3)n2)c1 [Compound 51]
39 | > 58 | > 58 | – | Cc1ccc(OCc2ccc(CN3CCOCC3)cc2C)c(-c2csc(N3CCCC(C(=O)O)CC3)n2)c1 (stereo not drawn) [Compound 52]
640 | > 53 | > 53 | – | Cc1cc(CN2CCCC(O)C2)ccc1COc1c(C)cccc1-c1csc(N2CCC(C(=O)O)CC2)n1 (stereo not drawn) [Compound 53]
2000 | 16 (≈ 29.9 µM) | 16 (≈ 29.9 µM) | – | Cc1cc(CN2CCC(O)CC2)ccc1COc1c(C)cccc1-c1csc(N2CCC(C(=O)O)CC2)n1 [Compound 54]
360 | 0.3 (≈ 0.56 µM) | > 53 | – | Cc1cc(C(=O)N2CCCCC2)ccc1COc1ccc(F)cc1-c1csc(N2CC3C(C2)C3C(=O)O)n1 (stereo not drawn) [Compound 55]
1600 | 0.2 (≈ 0.373 µM) | 29 (≈ 54 µM) | – | Cc1cc(C(=O)N2CCCCC2)ccc1COc1ccc(F)cc1-c1csc([C@H]2CC[C@@H](C(=O)O)CC2)n1 [Compound 56]
1800 | – | > 53 | 0.1 | Cc1cc(C(=O)N2CCCCC2)ccc1COc1ccc(F)cc1-c1csc([C@H]2CC[C@H](C(=O)O)CC2)n1 [Compound 57]
480 | 44 (≈ 81.5 µM) | > 61 | – | Cc1cc(CN2CCOCC2)ccc1COc1ccc(F)cc1-c1csc(N2CCC(C(=O)O)C(C)C2)n1 (stereo not drawn) [Compound 58]
39 | 0.5 (≈ 0.93 µM) | > 53 | – | Cc1cc(C(=O)N2CCCCC2)ccc1COc1ccc(F)cc1-c1csc(N2CCC(C(=O)O)CC2)n1 [Compound 59]
1200 | > 58 | > 58 | – | Cc1ccc(OCc2ccc(CN3CCOCC3)cc2C)c(-c2csc(N3CCC(F)(C(=O)O)CC3)n2)c1 [Compound 60]
440 | 44 (≈ 81.5 µM) | > 61 | – | Cc1cc(CN2CCOCC2)ccc1COc1ccc(F)cc1-c1csc(N2CCC(C(=O)O)CC2C)n1 (stereo not drawn) [Compound 61]
22 | 30 (≈ 55.3 µM) | > 65 | – | Cc1cc(CN2CCOCC2)ccc1COc1c(Cl)cccc1-c1csc(N2CCC(C(=O)O)CC2)n1 [Compound 62]
110 | 30 (≈ 55.3 µM) | 32 (≈ 59 µM) | – | Cc1cc(CN2CCOCC2)ccc1COc1ccc(Cl)cc1-c1csc(N2CCC(C(=O)O)CC2)n1 [Compound 63]

Compound | EC50 [1] [nM] | solubility [2, 3] [µg/mL] | solubility [2, 4] [µg/mL] | Solubility (pH 4.5) ([2]; pH 4.5 buffer) [μg/mL]
Cc1cc(CN2CCOCC2)ccc1COc1ccccc1-c1csc(N2C3CCC2CC(C(=O)O)C3)n1 (stereo not drawn) [Compound 44] | 760 | > 60 | > 60 | –
